From article PMC10447463, “Data-mining unveils structure–property–activity correlation of viral infectivity enhancing self-assembling peptides” (Nature Communications, 2023) come the findings set out here.

Where two headings read alike, the source gives them in different places.

The test system of series [1] is HIV-1 infection of TZM-bl cells. Put plainly: HIV-1 infectivity enhancement assay, β-galactosidase luminescence. The conditions noted are these: for Log10 Infection Rel EF-C: log10 of infection relative to EF-C; for Inf. rel. EF-C: n-fold infection vs virus only, relative to that of EF-C, 1.3 µM peptide; for Log10 of Rel to EFC (Feb2021): log10 of infectivity relative to EF-C; for Rel-to EFC (Feb-2021): n-fold infectivity relative to EF-C; for Log10 Inf. rel. to EF-C: log10 of HIV-1 infection of TZM-bl cells relative to EF-C, Fig S15 source data, asymmetric std dev errors. It is filed as cell-based.

The format of series [2] is physicochemical. Further details: key to Fibril / Fibril Formation / TEM 2cat / Fibril: 1 = fibrils present; 0 non-fibrillar structures. The conditions noted are these: for Fibril / Fibril Formation: TEM, 1 mg/mL, uranyl acetate stain, qualitative.
Series [3] is classed as physicochemical. The conditions noted are these: for ThT Cat. / ThT-Fluorescence (categorical): ThT-active if fluorescence at least twice the control. A digest of the protocol:
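Preformed peptide fibrils (1 mg/mL) mixed with 50 µM ThT in PBS, 15 min at RT, fluorescence ex 440/em 488 nm versus PBS blank, triplicates. Zeta potential: peptides at 1 mg/mL in PBS pH 7.4, aged 1 d at RT, diluted in 1 mM KCl, Smoluchowski from electrophoretic mobility.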

The mark [4] stands for this setting: infectivity class (low / medium / high) of each library peptide, main list in c1-c6, same classes repeated in sub-lists of sequences containing the hydrophobicity/charge patterns P+,H0,P+,H0,P0,H0,P0, P+,H0,P0,H0,P0,H0,P0, P+,H0,P0,H0.
The mark [5] stands for this setting: infectivity class (low / medium / high) of the peptide in the sequence-pattern analysis, Fig. S22-A4, class limits not given.
The mark [6] stands for this setting: Feb2021 run, infectivity n-fold relative to virus alone.
Setting [7] is: relative to blank 42.1851851851852 a.u.

RATVYV [reference compound]: the “Log10 Infection Rel EF-C” value in series [1] (Figure 7B) is reported as -1.38. Moreover, the “Inf. rel. EF-C” value in series [1] amounted to 0.04. Besides, the “Fibril / Fibril Formation” value in series [2] is on record as 1. The “ThT Cat. / ThT-Fluorescence (categorical)” value (“ThT Cat. / ThT-Fluorescence” below) in series [3] is 0 (ThT-inactive (N-Fold <2)).

As to NKGAII [reference compound], the “Log10 Infection Rel EF-C” value in series [1] (Figure 7B) was -1.2. In addition, the “Inf. rel. EF-C” value in series [1] amounted to 0.06. In addition, the “Fibril / Fibril Formation” value in series [2] is recorded as 0. In addition, the “ThT Cat. / ThT-Fluorescence” value in series [3] was 0 (ThT-inactive (N-Fold <2)).

On to LASLIYR [reference compound], for which the “Log10 Infection Rel EF-C” value in series [1] (Figure 7B) was -1.2. Further, the “Inf. rel. EF-C” value in series [1] was determined as 0.06. In series [2], the “Fibril / Fibril Formation” value worked out at 0. Moreover, in series [3], the “ThT Cat. / ThT-Fluorescence” value is 0 (ThT-inactive (N-Fold <2)).

As for KLKLKLQL [TG16], the “Absolute Infectivity / RLU /s (Feb2021)” value in series [1] (Feb2021, figures match the 1.3 µM column) is on record as 2097 RLU /s. In addition, the “n-fold to virus (Feb2021)” value in series [1] (Feb2021, infectivity relative to virus only) is 4.111. In series [1] (Feb2021), the “Log10 of Rel to EFC (Feb2021)” value was -1.009 and the “Rel-to EFC (Feb-2021)” value stood at 0.09784. Also, in series [1] (setting [4]), the infectivity entry is on record as “low”. Besides, the infectivity result in series [1] (setting [5]) is “low”. In series [1], the “Log10 Inf. rel. to EF-C” value is listed as -1.009. Further, the “TEM: 1= fibrils, 0= aggregates (micelle), 0.5 = aggregates and fibrils, -1 = nothing obersved, STD prep” value (“TEM: 1= fibrils, 0= aggregates (micelle)” below) in series [2] is given as 1. Further, in series [3] (ThT fluorescence relative to blank, blank = 42.1851851851852), the “Tht rel to blank (42.1851851851852)” value is listed as 1.572. Besides, the “Tht category (> 1.5 to blank = +)” value in series [3] (category 1/0) was 0 (ThT-inactive (N-Fold <2)).

In the case of NMWQKFKFQF [JG11], the infectivity entry in series [1] (setting [4]) was “medium”. Moreover, the “Log10 Inf. rel. to EF-C” value in series [1] is recorded as -0.5672. For the same substance, the “TEM: 1= fibrils, 0= aggregates (micelle)” value in series [2] (FigS26) is listed as 1. The “Tht category (> 1.5 to blank = +)” value in series [3] (FigS26) is given as 0 (Tht category (> 1.5 to blank = +)).

Consider KIKIWIW, for which the “Log10 Infection Rel EF-C” value in series [1] (Figure 6C) was -0.4875. The “Inf. rel. EF-C” value in series [1] was 0.33. Also, the “Fibril / Fibril Formation” value in series [2] is on record as 1. Also, in series [3], the “ThT Cat. / ThT-Fluorescence” value was 0 (ThT-inactive (N-Fold <2)).

Consider KIKIQIN [JGB3], for which, in series [1] (setting [6]), the “n-fold to virus (Feb2021)” value was determined as 11.14. Further, in series [1] (Feb2021 run), the “Log10 of Rel to EFC (Feb2021)” value is recorded as -0.5766 and the “Rel-to EFC (Feb-2021)” value amounted to 0.2651. Further, in series [1] (Fig S8 panels B, D, infectivity enhancement relative to EF-C), the “Rel-to EFC” value was 0.2651. The n-fold to virus in series [1] (Fig S8 panels B, D, infectivity n-fold relative to virus alone) is 11.14. Moreover, the infectivity entry in series [1] (setting [4]) is recorded as “medium”. Also, the “Log10 Inf. rel. to EF-C” value in series [1] was -0.5766. The “TEM: 1= fibrils, 0= aggregates (micelle)” value in series [2] stood at 1. Besides, the “Tht category (> 1.5 to blank = +)” value in series [3] (category 1/0) is 0 (ThT-inactive (N-Fold <2)). For the same substance, in series [3] (setting [7]), the “Tht rel to blank (42.1851851851852)” value is 1.784.

In the case of KIKIQINMWWWQ [VH12], in series [1] (setting [6]), the “n-fold to virus (Feb2021)” value turned out to be 115.5. In addition, in series [1] (Feb2021 run), the “Log10 of Rel to EFC (Feb2021)” value stood at 0.4391 and the “Rel-to EFC (Feb-2021)” value came out at 2.749. For the same substance, the infectivity entry in series [1] (setting [4]) is reported as “high”. In addition, the infectivity entry in series [1] (setting [5]) is “high”. The “Log10 Inf. rel. to EF-C” value in series [1] amounted to 0.4391. In addition, in series [2], the “TEM: 1= fibrils, 0= aggregates (micelle)” value is reported as 0.5. The “Tht category (> 1.5 to blank = +)” value in series [3] (category 1/0) is 0 (ThT-inactive (N-Fold <2)). In series [3] (setting [7]), the “Tht rel to blank (42.1851851851852)” value was 1.301.

KIKIQIAMWQ [JR4]: in series [1] (setting [4]), the infectivity entry is on record as “medium”. The “Log10 Inf. rel. to EF-C” value in series [1] is -0.4109. Besides, in series [2] (FigS26), the “TEM: 1= fibrils, 0= aggregates (micelle)” value is 1. In addition, the “Tht category (> 1.5 to blank = +)” value in series [3] (FigS26) is 1 (Tht category (> 1.5 to blank = +)).

Regarding CKIKIQIRGD [psis21], in series [1] (setting [4]), the infectivity entry is “medium”. Also, the “Log10 Inf. rel. to EF-C” value in series [1] is -0.4842. Besides, in series [2] (FigS26), the “TEM: 1= fibrils, 0= aggregates (micelle)” value stood at 1. In addition, the “Tht category (> 1.5 to blank = +)” value in series [3] (FigS26) is given as 0 (Tht category (> 1.5 to blank = +)).
